# According to patent US10993912B2, “Carrier-antibody compositions and methods of making and using the same” (MAYO FOUNDATION FOR MEDICAL EDUCATION AND RESEARCH, priority 2014, dated 2021):
# Columns and labels:
# [1] = biological target: T1, ABX (Homo sapiens, UniProt P02768); experiment: Binding of cisplatin to ABX, free cisplatin by HPLC; conditions: ABX 5 mg/ml, cisplatin 0.5 mg/ml, room temperature 30 minutes
# T1 construct: purchased Celgene Corporation, Summit, N.J
# [2] = biological target: T1, ABX; experiment: Bio-Layer Interferometry (BLItz) binding assay of antibody and ABX; conditions: for dependence of binding affinity to ABX on pH / temperature: pH 3, 5, 7, 9, for BEV also RT, 37° C. and 58° C.
# Protocol: The association and dissociation constants were calculated using the BLItz software.
# [3] = system: A375 human melanoma cells; experiment: A375 xenograft, pretreatment with BEV before AB160; type: in vivo, athymic nude mice; conditions: 12 mg/kg dose
# Text: Data is represented at day 7-post and 10-day treatment as tumor volume in mm^3.
# Data is represented at day 7-post and day 10-post treatment as tumor volume in mm^3. F 11A-E track tumor size over 10 days. […] See also FIG. 11F and FIG. 11G.
# [4] = system: A375 human melanoma cells; experiment: A375 xenograft efficacy in athymic nude mice; type: in vivo; conditions: Example 5; ABX 30 mg/kg, BEV 12 mg/kg, tumors about 700 mm^3 at treatment
# Protocol: Tumor response was determined at day 7 post-treatment by the percent change in tumor size from the day of treatment.
# In vivo experiments were performed at least 2 times. The number of mice required for those experiments was determined by power analysis. Mouse tumors were measured 2-3 times/week and mice were sacrificed when the tumor was 10% by weight. […] The end point of the mouse studies was median survival. Kaplan-Meier curves were generated and Mantle-Cox test was performed to determine significance of median survival between treatment groups. The in vitro results presented are representative of at least 5 repeated experiments. Statistical analyses of in vitro and in vivo percent change from baseline experiments were done using the Student's t-test.
# (§1) To test tumor efficacy, 1×10^6 A375 human melanoma cells were implanted into the right flank of athymic nude mice (Harlan Sprague Dawley, Indianapolis, Ind.). […] Tumor size was monitored 3 times/week and tumor volume was calculated with the following equation: (length*width^2)/2. Mice were sacrificed when the tumor size equaled 10% of the mouse body weight or about 2500 mm^3. The day 7 percent change from baseline was calculated as follows: [(tumor size on treatment day-tumor size on day 7)/tumor size on treatment day]*100.
# [5] = system: Daudi human lymphoma cells; experiment: Daudi xenograft efficacy in athymic nude mice; type: in vivo; conditions: ABX 30 mg/kg, rituximab 12 mg/kg
# Protocol: Tumor response was determined at day 7 post-treatment by the percent change in tumor size from the first day of treatment.
# as §1
Compound,cisplatin remaining in the supernatant [1],binding affinity to ABX (in words) [2],dependence of binding affinity to ABX on pH / temperature [2],therapeutic effect of BEV alone [3],median survival [4],median survival [5]
N.N.[Cl][Pt][Cl] [cisplatin],40%,–,–,–,–,–
bevacizumab,–,picomolar range,highest binding affinity observed when the particles are formed at pH 5 and 58 °C,not therapeutic,14 days,–
rituximab,–,picomolar range,decreased with higher pH,–,–,12 days
